Measured values from US9957230B2, “Synergistic compositions” (Cadila Healthcare Limited, priority 2013, dated 2018).
Structures can show the parent of a compound that is named as a salt.

Test system: db/db mice
Assay: Antidiabetic activity with Exenatide or Glimepiride in db/db mice (studies VII and VIII): non-fasting serum glucose
Type: in vivo
Settings: for Serum Glucose (mg/dl) Day 0: Day 0 (pretreatment), male and female db/db mice; for Serum Glucose (mg/dl) Day 6: Day 6, one hour after dose, non-fasting; for % Change Day 6 vs Day 0: serum glucose
Excerpt: The in-vivo efficacy for antidiabetic activity was done in male and female db/db mice of 12-16 weeks of age. Generally obese and diabetic animals are insulin resistant and have abnormalities in glucose and lipid metabolism. The development of diabetes and beta cell dysfunction in these animal models closely parallels the pathophysiology of the disease condition in humans. […] They progressively develop into insulinopenia with age, a feature commonly observed in last stage of type-2 diabetes, when blood sugar levels are insufficiently controlled. Therefore, this genetic model proves to be suitable for predicting the likely therapeutic benefit of novel euglycemic agents in human type-2 diabetes.
In this experiment, 49 db/db mice of 12-16 week were divided into 7 groups and as per their day 0 serum glucose levels. […] Detail treatments and routes of administrations were mentioned in Table no. 27. The treatment was given once daily for 7 days.
The blood was collected by retro-orbital sinus puncture method under light ether anesthesia on day 0 (pretreatment) and on day 6 (one hour after dose administration) for non-fasting glucose analysis and oral glucose tolerance test (OGTT) was performed on day 7 of the treatment in fasting condition. After blood collection serum was separated and analyzed glucose analysis using Spectra max and commercial diagnostic kits. The OGTT procedure followed is as given below—
The calculation for antidiabetic activity i.e. effect on serum glucose and improvement in glucose Area Under Curve (AUC) was calculated using the excel sheet and Graph Pad Prism software. The day-0 and day-6 glucose values of vehicle control and treatment were considered for calculating the effect on serum glucose. The effect on glucose AUC was calculated using the OGTT glucose levels at different time points and the improvement in glucose AUC were the reduction in glucose AUC after the treatment during OGTT.

[1] = Table 28, Compound Ia 0.1 mg/kg p.o., Exenatide 0.1 μg/kg i.p. once daily
[2] = Table 30, Compound Ia 0.1 mg/kg, Glimepiride 2 mg/kg p.o. once daily

CCO[C@@H](Cc1ccc(OCCn2c(C)ccc2-c2ccc(SC)cc2)cc1)C(=O)O [Compound (Ia), Benzenepropanoic acid, α-ethoxy-4-[2-[2-methyl-5-[4-(methylthio)phenyl]-1H -pyrrol-1-yl]ethoxy]-, magnesium salt]
Serum Glucose (mg/dl) Day 0 [1]: 420.6 mg/dL
Serum Glucose (mg/dl) Day 6 [1]: 363.4 mg/dL
% Change Vs control (Table 28, serum glucose day 6 vs vehicle control (i.p. PBS or per oral vehicle), Compound Ia 0.1 mg/kg p.o., Exenatide 0.1 μg/kg i.p.): −24.8%
% Change Day 6 vs Day 0 (Table 28, Compound Ia 0.1 mg/kg p.o., Exenatide 0.1 μg/kg i.p.): −13.4%
Serum Glucose (mg/dl) Day 0 [2]: 420.6 mg/dL
Serum Glucose (mg/dl) Day 6 [2]: 363.4 mg/dL
% Change Day 6 vs Day 0 (Table 30, Compound Ia 0.1 mg/kg, Glimepiride 2 mg/kg p.o.): −13.4%
% Change Vs control (Table 30 and text, serum glucose day 6 vs vehicle control, Compound Ia 0.1 mg/kg, Glimepiride 2 mg/kg p.o.): −24.8%
reduction in serum glucose (db/db mice, day 6, Compound Ia 0.1 mg/kg p.o., Exenatide 0.1 μg/kg i.p.): 24.8%
